Source: patent US20060229433A1, “Modified antiviral peptides with increased activity and cell membrane affinity” (priority 2003, published 2006)
pIC50: −log10 of the molar value. “And” between values parts separate entries of the source, which are not always exact repeats. Identical values can stand only once. Peptide text beside a SMILES is read from it.

What was measured:
Assay type in all cases: cell-based
HIV-1 NDK = assay: HIV-1 infection of C8166 cells (syncytia formation, p24 ELISA) with HIV-1 NDK; design: key to syncitia formed, Day 4 / syncitia formed, Day 5 / syncitia formed, Day 6 / syncitia formed, Day 7: ++, +, (+), (+)− and − represent decreasing numbers of syncitia formed; ++, +, (+), (+)− and − represent decreasing numbers of syncitia formed; ++, +, (+), (+)− and − represent decreasing numbers of syncitia formed; ++, +, (+), (+)− and − represent decreasing numbers of syncitia formed; ++, +, (+), (+)− and − represent decreasing numbers of syncitia formed; conditions: for P 24: P 24 after Day 7
Method in brief: (§1)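 C8166 T-cells were preincubated with peptide for 1 h at 37 °C, then exposed for 1 h to HIV-1 at 1000 TCID50/ml, washed, and cultured with peptide kept present throughout, with medium replaced at day 4. Infection was scored by syncytia formation and by supernatant p24 ELISA, with at least two runs in duplicate.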

HIV-1 NL 4-3 [1] = assay: HIV-1 infection of C8166 cells (syncytia formation, p24 ELISA) with HIV-1 NL 4-3; design: key: ++, +, (+), (+)− and − represent decreasing numbers of syncitia formed; ++, +, (+), (+)− and − represent decreasing numbers of syncitia formed; ++, +, (+), (+)− and − represent decreasing numbers of syncitia formed; ++, +, (+), (+)− and − represent decreasing numbers of syncitia formed; ++, +, (+), (+)− and − represent decreasing numbers of syncitia formed; conditions: Table 6
Method in brief: as §1

HIV-1 NL 4-3 [2] = assay: as above; design: key to syncitia formed, Day 4 / syncitia formed, Day 5 / syncitia formed, Day 6 / syncitia formed, Day 7: ++, +, (+), (+)− and − represent decreasing numbers of syncitia formed; ++, +, (+), (+)− and − represent decreasing numbers of syncitia formed; ++, +, (+), (+)− and − represent decreasing numbers of syncitia formed; ++, +, (+), (+)− and − represent decreasing numbers of syncitia formed; ++, +, (+), (+)− and − represent decreasing numbers of syncitia formed
Method in brief: as §1

[3] = C8166 cells, HIV-1 subtype B NL 4-3, Table 9, two lines = tested twice, 8 days apart

N=C(N)NCCC[C@H](NC(=O)CNC(=O)[C@@H]1CCCN1C(=O)CN)C(=O)O [GPGR, reference compound] (H-GPGR-OH; N-terminus and C-terminus assumed)
syncitia formed, Day 4 (HIV-1 NDK; 0.005 μM): − | syncitia formed, Day 5 (HIV-1 NDK; 0.005 μM): + | syncitia formed, Day 6 (HIV-1 NDK; 0.005 μM): ++ | syncitia formed, Day 7 (HIV-1 NDK; 0.005 μM): ++/T | P 24 (HIV-1 NDK; 0.005 μM): 23810 pg/mL | syncitia formed, Day 4 (HIV-1 NDK; 0.01 μM): − | syncitia formed, Day 5 (HIV-1 NDK; 0.01 μM): + | syncitia formed, Day 6 (HIV-1 NDK; 0.01 μM): ++ | syncitia formed, Day 7 (HIV-1 NDK; 0.01 μM): ++ | P 24 (HIV-1 NDK; 0.01 μM): 23810 pg/mL | syncitia formed, Day 4 (HIV-1 NDK; 0.05 μM): − | syncitia formed, Day 5 (HIV-1 NDK; 0.05 μM): + | syncitia formed, Day 6 (HIV-1 NDK; 0.05 μM): ++ | syncitia formed, Day 7 (HIV-1 NDK; 0.05 μM): ++ | P 24 (HIV-1 NDK; 0.05 μM): 23810 pg/mL | syncitia formed, Day 4 (HIV-1 NDK; 0.1 μM): − | syncitia formed, Day 5 (HIV-1 NDK; 0.1 μM): (+) | syncitia formed, Day 6 (HIV-1 NDK; 0.1 μM): ++ | syncitia formed, Day 7 (HIV-1 NDK; 0.1 μM): ++ | P 24 (HIV-1 NDK; 0.1 μM): 21810 pg/mL and 23870 pg/mL | syncitia formed, Day 4 (HIV-1 NDK; 0.5 μM): − | syncitia formed, Day 5 (HIV-1 NDK; 0.5 μM): (+) | syncitia formed, Day 6 (HIV-1 NDK; 0.5 μM): ++ | syncitia formed, Day 7 (HIV-1 NDK; 0.5 μM): ++ | P 24 (HIV-1 NDK; 0.5 μM): 9810 pg/mL and 15856 pg/mL | syncitia formed, Day 4 (HIV-1 NDK; 1 μM): − | syncitia formed, Day 5 (HIV-1 NDK; 1 μM): − | syncitia formed, Day 6 (HIV-1 NDK; 1 μM): + | syncitia formed, Day 7 (HIV-1 NDK; 1 μM): ++ | P 24 (HIV-1 NDK; 1 μM): 9870 pg/mL and 13890 pg/mL | syncitia formed, Day 4 (HIV-1 NDK; 5 μM): − | syncitia formed, Day 5 (HIV-1 NDK; 5 μM): − | syncitia formed, Day 6 (HIV-1 NDK; 5 μM): + | syncitia formed, Day 7 (HIV-1 NDK; 5 μM): ++ | pIC50 (HIV-1 NDK; HIV 1 NDK, Table 10): 6.30 | IC100 (HIV-1 NDK; HIV 1 NDK, Table 10): >5 µM | Day 4 syncitia formed (HIV-1 NL 4-3 [1]; 0.005 μM): − | Day 5 syncitia formed (HIV-1 NL 4-3 [1]; 0.005 μM): ++ | Day 6 syncitia formed (HIV-1 NL 4-3 [1]; 0.005 μM): ++ | Day 4 syncitia formed (HIV-1 NL 4-3 [1]; 0.01 μM): − | Day 5 syncitia formed (HIV-1 NL 4-3 [1]; 0.01 μM): + | Day 6 syncitia formed (HIV-1 NL 4-3 [1]; 0.01 μM): ++ | Day 7 syncitia formed (HIV-1 NL 4-3 [1]; 0.01 μM): ++ | Day 4 syncitia formed (HIV-1 NL 4-3 [1]; 0.05 μM): − | Day 5 syncitia formed (HIV-1 NL 4-3 [1]; 0.05 μM): + | Day 6 syncitia formed (HIV-1 NL 4-3 [1]; 0.05 μM): + | Day 7 syncitia formed (HIV-1 NL 4-3 [1]; 0.05 μM): ++ | Day 4 syncitia formed (HIV-1 NL 4-3 [1]; 0.1 μM): − | Day 5 syncitia formed (HIV-1 NL 4-3 [1]; 0.1 μM): (+) | Day 6 syncitia formed (HIV-1 NL 4-3 [1]; 0.1 μM): + | Day 7 syncitia formed (HIV-1 NL 4-3 [1]; 0.1 μM): + | Day 4 syncitia formed (HIV-1 NL 4-3 [1]; 0.5 μM): − | Day 5 syncitia formed (HIV-1 NL 4-3 [1]; 0.5 μM): − | Day 6 syncitia formed (HIV-1 NL 4-3 [1]; 0.5 μM): − | Day 7 syncitia formed (HIV-1 NL 4-3 [1]; 0.5 μM): + | Day 4 syncitia formed (HIV-1 NL 4-3 [1]; 1 μM): − | Day 5 syncitia formed (HIV-1 NL 4-3 [1]; 1 μM): − | Day 6 syncitia formed (HIV-1 NL 4-3 [1]; 1 μM): − | Day 7 syncitia formed (HIV-1 NL 4-3 [1]; 1 μM): + | Day 4 syncitia formed (HIV-1 NL 4-3 [1]; 5 μM): − | Day 5 syncitia formed (HIV-1 NL 4-3 [1]; 5 μM): − | Day 6 syncitia formed (HIV-1 NL 4-3 [1]; 5 μM): − | Day 7 syncitia formed (HIV-1 NL 4-3 [1]; 5 μM): − | Day 7 syncitia formed (HIV-1 NL 4-3 [2]; 0.005 μM, Table 6): ++/T | syncitia formed, Day 4 (HIV-1 NL 4-3 [2]; 0.01 μM, C8166 cells): (+) | syncitia formed, Day 5 (HIV-1 NL 4-3 [2]; 0.01 μM, C8166 cells): + | syncitia formed, Day 6 (HIV-1 NL 4-3 [2]; 0.01 μM, C8166 cells): ++ | syncitia formed, Day 7 (HIV-1 NL 4-3 [2]; 0.01 μM, Day 7, C8166 cells): ++ | P 24 (HIV-1 NL 4-3 [2]; 0.01 μM, P 24 after Day 7, C8166 cells): 23810 pg/mL | syncitia formed, Day 4 (HIV-1 NL 4-3 [2]; 0.05 μM, C8166 cells): (+) | syncitia formed, Day 5 (HIV-1 NL 4-3 [2]; 0.05 μM, C8166 cells): + | syncitia formed, Day 6 (HIV-1 NL 4-3 [2]; 0.05 μM, C8166 cells): + | syncitia formed, Day 7 (HIV-1 NL 4-3 [2]; 0.05 μM, Day 7, C8166 cells): ++ | P 24 (HIV-1 NL 4-3 [2]; 0.05 μM, P 24 after Day 7, C8166 cells): 13810 pg/mL and 12980 pg/mL | syncitia formed, Day 4 (HIV-1 NL 4-3 [2]; 0.1 μM, C8166 cells): − | syncitia formed, Day 5 (HIV-1 NL 4-3 [2]; 0.1 μM, C8166 cells): (+) | syncitia formed, Day 6 (HIV-1 NL 4-3 [2]; 0.1 μM, C8166 cells): + | syncitia formed, Day 7 (HIV-1 NL 4-3 [2]; 0.1 μM, Day 7, C8166 cells): + | syncitia formed, Day 4 (HIV-1 NL 4-3 [2]; 0.5 μM, C8166 cells): − | syncitia formed, Day 5 (HIV-1 NL 4-3 [2]; 0.5 μM, C8166 cells): − | syncitia formed, Day 6 (HIV-1 NL 4-3 [2]; 0.5 μM, C8166 cells): − | syncitia formed, Day 7 (HIV-1 NL 4-3 [2]; 0.5 μM, Day 7, C8166 cells): + | P 24 (HIV-1 NL 4-3 [2]; 0.5 μM, P 24 after Day 7, C8166 cells): 23000 pg/mL and 15810 pg/mL | syncitia formed, Day 4 (HIV-1 NL 4-3 [2]; 1 μM, C8166 cells): − | syncitia formed, Day 5 (HIV-1 NL 4-3 [2]; 1 μM, C8166 cells): − | syncitia formed, Day 6 (HIV-1 NL 4-3 [2]; 1 μM, C8166 cells): − | syncitia formed, Day 7 (HIV-1 NL 4-3 [2]; 1 μM, Day 7, C8166 cells): (+) | P 24 (HIV-1 NL 4-3 [2]; 1 μM, P 24 after Day 7, C8166 cells): 316 pg/mL and 343 pg/mL | syncitia formed, Day 4 (HIV-1 NL 4-3 [2]; 5 μM, C8166 cells): − | syncitia formed, Day 5 (HIV-1 NL 4-3 [2]; 5 μM, C8166 cells): − | syncitia formed, Day 6 (HIV-1 NL 4-3 [2]; 5 μM, C8166 cells): − | syncitia formed, Day 7 (HIV-1 NL 4-3 [2]; 5 μM, Day 7, C8166 cells): (+) | P 24 (HIV-1 NL 4-3 [2]; 5 μM, P 24 after Day 7, C8166 cells): 152 pg/mL | pIC50 (HIV-1 NL 4-3 [2]; [3]): 7.22 and 7.00 | IC100 (HIV-1 NL 4-3 [2]; [3]): 5 µM and >5 µM | P 24 (HIV-1 NL 4-3 [2]; Day 7, 0.005 μM, Table 6): 23810 pg/mL | P 24 (HIV-1 NL 4-3 [2]; Day 7, 0.01 μM, Table 6): 23810 pg/mL | P 24 (HIV-1 NL 4-3 [2]; Day 7, 0.1 μM, Table 6): 5810 pg/mL and 10110 pg/mL | P 24 (HIV-1 NL 4-3 [2]; Day 7, 0.5 μM, Table 6): 2507 pg/mL and 2840 pg/mL
